Here are results for 1 substance from US20100273876A1, “ANTIBACTERIAL FORMULATION COMPRISING A DIALKYL SULPHOSUCCINATE AND A CARBANILIDE ANTIBACTERIAL AGENT” (priority 2007, published 2010).

One assay has as its system Por. gingivalis 381. The experiment in a line: Biofilm disruption assay on hydroxyapatite discs. The class given is cell-based, Porphyromonas gingivalis. To be noted: Por. gingivalis 381 biofilm, DOSS 0.5% (w/v), CHX 0.2% (w/v). The method, then: This assay was designed to determine quantitatively the relative potency of a test compound to disrupt (effectively kill) biofilms formed by a test organism on hydroxyapatite (HA) discs.
Biofilms were formed on sterile dense ceramic HA discs 7 mm diameter x 1.8 mm thick (Clarkson Chromatography) by placing the discs in the appropriate liquid media (as described above) inoculated with the test organism (0.5×10^8 cfu/ml). The HA discs were then incubated at 37° C. for ˜48 h in a 5% CO2 atmosphere (for Strep. mutans ATCC 25175) or ˜96 h under anaerobic conditions (for Por. gingivalis 381). Following the incubation period the supernatant was removed from the wells containing the HA discs and the discs were washed×3 with fresh media to ensure all planktonic cells were removed. The HA discs were then transferred to sterile bijoux bottles containing 1 ml of phosphate buffered saline (PBS) plus test compound(s) at the required concentration. After a set time period (usually 2 and/or 5 min), the HA disc was transferred to another sterile bijoux containing 1 ml of fresh growth media. Adherent cells were then harvested by vigorous vortexing for 2 minutes. A sample was then taken, serially diluted 10-fold in fresh growth media and inoculated onto agar plates in triplicate. Untreated HA discs, and HA discs added to PBS containing only the solvents used to dissolve the test compound(s), acted as controls.
The plates were then incubated as described above and subsequently examined visually for growth. Colonies were counted at an appropriate serial dilution (5-50 individual colonies visible) with the aid of a colony counter. These measurements were then converted to numbers of colony forming units (cfu), using the formula: cfu/ml=number of colonies×serial dilution factor×100 (as only a 10 μl sample was taken).
These cfu values were then converted into log10 values and plotted graphically against time of sample removal.
At each time point, samples were assessed in triplicate; the final cfu/ml value was an average (mean) of the three readings.
Biofilm disruption assays, as described above, were carried out using DOSS as the test compound and chlorhexidine (CHX) as a positive control. For these experiments, the DOSS was tested at 0.5% w/v against Por. gingivalis and 1% w/v against Strep. mutans. The ahlorhexidine was tested at a concentration of 0.2% w/v against both micro-organisms. The DOSS was dissolved in ethanol and the chlorhexidine in distilled water. All the experiments were conducted in triplicate.

Assay [1] has as its system Strep. mutans ATCC 25175. The experiment in a line: MBC assay. The assay is classed as cell-based, Streptococcus mutans. Here is the method:
The S. mutans was cultured and maintained on Wilkins-Chalgren Anaerobe Medium (agar and broth) at pH 7.0 supplemented with 1 g/L glucose; all cultures were incubated at 37° C. for 48 h in an atmosphere containing 5% CO2. This assay, normally carried out after an MIC assay, determines the rnininiurn concentration of a compound that is lethal to the micro-organism being tested. […] These samples were then individually sub-cultured on antibiotic-free agar medium, under the incubation conditions described above. Following incubation they were examined visually for microbial growth.

Assay [2] concerns Strep. mutans ATCC 25175. The experiment in a line: MIC assay, liquid medium. The assay is classed as cell-based, Streptococcus mutans. The method, then:
The S. mutans was cultured and maintained on Wilkins-Chalgren Anaerobe Medium (agar and broth) at pH 7.0 supplemented with 1 g/L glucose; all cultures were incubated at 37° C. for 48 h in an atmosphere containing 5% CO2.
This is a standard international method for quantitatively assessing the antimicrobial activity of a compound in a liquid medium. The method used a sterile 96-well microtitre plate, capable of holding about 200 μl of liquid per well. The wells contained liquid culture medium and ranges of decreasing concentrations of the relevant test compound in doubling dilutions (eg, 1000, 500, 250, 125 . . . μg/ml, etc. down to 0.49 μg/ml). The culture media were as described above.
The wells were inoculated with a liquid suspension of freshly grown micro-organism and incubated under the conditions described above. After incubation, the microtitre plate was examined visually (with the aid of a light box) for cloudiness in each well, which would indicate microbial growth. The MIC value was recorded as the lowest concentration of test compound required to inhibit microbial growth, ie, the lowest concentration for which the liquid in the well remained clear.
The assays included both negative (culture medium with no micro-organisms) and positive (culture medium plus diluting solvent plus micro-organism) controls.

As to dioctyl sodium sulphosuccinate [DOSS], the Viable cell counts came out at 7.53 log10 cfu/ml in the assay with Por. gingivalis 381 (0 min), 5.08 log10 cfu/ml in the assay on Por. gingivalis 381 (2 min) and 3.34 log10 cfu/ml with Por. gingivalis 381 (5 min). Also, in the assay on Strep. mutans ATCC 25175 [1], the MBC (commonly the lowest tested concentration that kills the bacteria rather than only halting them) came out at 15.6 µg/mL. In the assay with Strep. mutans ATCC 25175 [1], the MIC/MBC ratio is listed as 1. Further, in the assay with Strep. mutans ATCC 25175 [2], the minimal inhibitory concentration (MIC) (usually the lowest concentration that inhibits growth of the organism) amounted to 15.6 µg/mL.
